Where “and” joins values, the source holds several entries; their conditions need not be identical. Identical values can stand only once.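 Briefly, cells in 96-well plates were exposed to five compound concentrations for 48 h, and endpoints were estimated by linear interpolation. GI50 marks 50% less growth. At the TGI there is no net growth.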

For the first assay, the system named is SNB-75 CNS. Nature of the assay: inhibition of tumour cell growth, NCI panel, 48 h.
In the case of `Nc1nc(OCc2ccccc2)c2[nH]cnc2n1`, the GI50 was 13.9 µM; the TGI was 67.3 µM and 86.1 µM.
As to `Fc1ccc(/C=N/n2c(-c3ccc(F)c(Cl)c3)nn(CNc3ccccc3C(F)(F)F)c2=S)cc1`, the GI50 was greater than 100 µM and the TGI was greater than 100 µM.
Take `CN[C@@H](C)C(=O)N[C@H](C(=O)N1CCC[C@H]1C(=O)Nc1sc(-c2ncco2)nc1-c1ccccc1)C1CCCCC1`: the GI50 was 12.2 µM and the TGI was found to be 65.4 µM.
Taken in the same sequence, the figures for `CC1=C2[C@@H](CC1)[C@]1(C)O[C@@](c3ccccc3)(C[C@H]1OC(=O)CO)[C@H]2OC(=O)/C=C/c1ccccc1` were 14.2 µM and 53.6 µM.
For `NC(=O)c1csc(C2OC(CO)C(O)C2O)n1` (stereo unspecified), the GI50 was 26.5 µM and 40.8 µM; the TGI was determined as 7140 µM.
Take `CCCN(CCS(C)(=O)=O)Cc1ccc(-c2ccc3ncnc(Nc4ccc(OCc5cccc(F)c5)c(Cl)c4)c3c2)o1`: the GI50 was greater than 25 µM and the TGI was greater than 25 µM.
For `CC(C)C[C@H](NC(=O)CNC(=O)c1cc(Cl)ccc1Cl)B1OC(=O)CC(CC(=O)O)(C(=O)O)O1` (stereo partly specified), the GI50 was 0.182 µM and the TGI is 0.504 µM.
Regarding `OCC12C3C4C5C3C1C5C42` (stereo unspecified), the TGI is greater than 100 µM.
For the compound `CCCCCCCCCCCCCCCCCC[n+]1ccc2c(C)c3c(c(C)c2c1)c1cc(O)ccc1n3CC`, the GI50 was 2.27 µM and the TGI turned out to be 12 µM.
Taken in the same sequence, the figures for `CCc1ccc2c(c1)N(CCO)C1=C(C(=O)OC1)C2c1cccc(Br)c1` (stereo unspecified) were 0.307 µM and 8.3 µM.
Taken in the same sequence, the figures for `O=c1[nH]c(=O)n(C2CC(O)C(COP(=O)(OCc3ccc([N+](=O)[O-])o3)N(CCCCCl)CC(O)CO)O2)cc1F` (stereo unspecified) were 2.82 µM and greater than 100 µM.
Regarding `CC(C)NCCCn1c(Sc2cc3c(cc2I)OCO3)nc2c(N)ncnc21`, the GI50 is 0.727 µM and the TGI is greater than 100 µM.
The corresponding values for `CN1C(=O)N(C)C2C1NN=c1s/c(=C\c3ccc(C(F)(F)F)cc3)c(=O)n12` (stereo unspecified) are 2.11 µM and 18.1 µM.
As for `N#Cc1c(N2CCOCC2)nc(=S)[nH]c1-c1ccco1`, the GI50 is 2.15 µM and the TGI amounted to 55.6 µM.
For `C[C@@H]1CN(Cc2ccc(F)cc2)[C@@H](C)CN1C(=O)c1cc2c(C(=O)C(=O)N(C)C)cn(C)c2cc1Cl`, the GI50 is 8.35 µM and the TGI was found to be 27.9 µM.

Another assay deals with MDA-MB-231 breast. As to the kind of experiment: inhibition of tumour cell growth, NCI panel, 48 h.
As for `Nc1nc(OCc2ccccc2)c2[nH]cnc2n1`, the GI50 was 36.5 µM and 31.5 µM; the TGI was found to be 163 µM.
Consider `Fc1ccc(/C=N/n2c(-c3ccc(F)c(Cl)c3)nn(CNc3ccccc3C(F)(F)F)c2=S)cc1`, for which the GI50 was 67 µM and the TGI is greater than 100 µM.
For `CN[C@@H](C)C(=O)N[C@H](C(=O)N1CCC[C@H]1C(=O)Nc1sc(-c2ncco2)nc1-c1ccccc1)C1CCCCC1`, the GI50 was 0.425 µM and the TGI stood at 17.2 µM.
Turning to `CC1=C2[C@@H](CC1)[C@]1(C)O[C@@](c3ccccc3)(C[C@H]1OC(=O)CO)[C@H]2OC(=O)/C=C/c1ccccc1`, the GI50 is 19.2 µM and the TGI turned out to be 49.5 µM.
Taken in the same sequence, the figures for `NC(=O)c1csc(C2OC(CO)C(O)C2O)n1` (stereo unspecified) were greater than 73.8 µM and greater than 6480 µM.
The corresponding values for `CCCN(CCS(C)(=O)=O)Cc1ccc(-c2ccc3ncnc(Nc4ccc(OCc5cccc(F)c5)c(Cl)c4)c3c2)o1` are greater than 25 µM and greater than 25 µM.
Taken in the same sequence, the figures for `CC(C)C[C@H](NC(=O)CNC(=O)c1cc(Cl)ccc1Cl)B1OC(=O)CC(CC(=O)O)(C(=O)O)O1` (stereo partly specified) were 0.0532 µM and 0.485 µM.
For the compound `OCC12C3C4C5C3C1C5C42` (stereo unspecified), the TGI is greater than 100 µM.
`CCCCCCCCCCCCCCCCCC[n+]1ccc2c(C)c3c(c(C)c2c1)c1cc(O)ccc1n3CC`: the GI50 was 2.76 µM and the TGI amounted to 12.7 µM.
Regarding `CCc1ccc2c(c1)N(CCO)C1=C(C(=O)OC1)C2c1cccc(Br)c1` (stereo unspecified), the GI50 was 2.43 µM and the TGI is 15.7 µM.
With `O=c1[nH]c(=O)n(C2CC(O)C(COP(=O)(OCc3ccc([N+](=O)[O-])o3)N(CCCCCl)CC(O)CO)O2)cc1F` (stereo unspecified), the GI50 was greater than 100 µM and the TGI is greater than 100 µM.
Regarding `CC(C)NCCCn1c(Sc2cc3c(cc2I)OCO3)nc2c(N)ncnc21`, the GI50 is 0.481 µM and the TGI was found to be 61 µM.
Taken in the same sequence, the figures for `CN1C(=O)N(C)C2C1NN=c1s/c(=C\c3ccc(C(F)(F)F)cc3)c(=O)n12` (stereo unspecified) were 2.29 µM and 14 µM.
The corresponding values for `N#Cc1c(N2CCOCC2)nc(=S)[nH]c1-c1ccco1` are 4.63 µM and greater than 100 µM.
Consider `C[C@@H]1CN(Cc2ccc(F)cc2)[C@@H](C)CN1C(=O)c1cc2c(C(=O)C(=O)N(C)C)cn(C)c2cc1Cl`, for which the GI50 was 14.9 µM and the TGI is 32.7 µM.

Another assay has as its system HOP-92 NSCLC. As to the kind of experiment: inhibition of tumour cell growth, NCI panel, 48 h.
With `Nc1nc(OCc2ccccc2)c2[nH]cnc2n1`, the GI50 is 7.9 µM and 27.2 µM; the TGI is 89.2 µM and 239 µM and 183 µM.
`Fc1ccc(/C=N/n2c(-c3ccc(F)c(Cl)c3)nn(CNc3ccccc3C(F)(F)F)c2=S)cc1`: the GI50 is 17.6 µM and the TGI is 63.8 µM.
The corresponding values for `CN[C@@H](C)C(=O)N[C@H](C(=O)N1CCC[C@H]1C(=O)Nc1sc(-c2ncco2)nc1-c1ccccc1)C1CCCCC1` are 3.52 µM and 13.4 µM.
`CC1=C2[C@@H](CC1)[C@]1(C)O[C@@](c3ccccc3)(C[C@H]1OC(=O)CO)[C@H]2OC(=O)/C=C/c1ccccc1`: the GI50 is 13.7 µM and the TGI was found to be 29.7 µM.
In turn, `NC(=O)c1csc(C2OC(CO)C(O)C2O)n1` (stereo unspecified) gave a TGI of 1300 µM.
As for `CCCN(CCS(C)(=O)=O)Cc1ccc(-c2ccc3ncnc(Nc4ccc(OCc5cccc(F)c5)c(Cl)c4)c3c2)o1`, the GI50 is greater than 25 µM and the TGI is greater than 25 µM.
Turning to `CC(C)C[C@H](NC(=O)CNC(=O)c1cc(Cl)ccc1Cl)B1OC(=O)CC(CC(=O)O)(C(=O)O)O1` (stereo partly specified), the GI50 is 0.0219 µM and the TGI turned out to be 0.173 µM.

For the origin of these results see PubChem BioAssay (NCI).
